Data as given in patent publication US20260265525A1, “DEVELOPMENT OF HIGHLY FLUOROGENIC STYRENE PROBES FOR VISUALIZING RNA IN LIVE CELLS” (UNIVERSITY OF SOUTHERN CALIFORNIA, priority 2023, published 2026).

Columns and labels:
[1] = Spectral and photophysical characterization of free dyes in T.E. buffer; format: physicochemical; conditions: for Stokes shift / molar absorptivity: T.E. buffer; for emission wavelength (maximum) / fluorescence quantum yield of free dye / maximum absorbance wavelength: free dye in T.E. buffer
Experimental: After the synthesis of the styrene dyes, their photophysical properties were evaluated. The spectral and photophysical properties (absorption, emission, molar absorptivity (ε), fluorescence quantum yield (ΦDF), and fluorescence enhancement) of probes 1a-1d were measured in DMSO and T.E. buffer (Tris-HCl, 1 mM EDTA, pH=7.5). FIG. 2D provides measurements of the fluorescent enhancement for several of the fluorescent probes.
(§1) Coumarin 6 was used as a reference dye for MPI, 1a, and 1b and Rhodamine 6G was used as a reference for 1c and 1d. Absorption spectra were collected by Shimadzu UV-1800 spectrophotometer. Samples were loaded in plastic disposable cuvette. Emission spectra were obtained by Photon Technology International QuantaMaster model C-60 Fluorimeter in 1×1 cm^2 quartz cuvettes. Fluorescence quantum yields were then calculated according to the method by Lawson-wood, Upstone, and Evans. (58) The torula yeast type IV RNA (Sigma) solution was prepared as a 200 μg/mL solution in T.E. buffer (Tris-HCl, EDTA, pH 7.6, Bioworld) without sonicating to avoid shearing of nucleic acids. All measurements were taken using samples with a final dye concentration of 10 μM.

torula yeast type IV RNA = assay: Quantum yield and fluorescence enhancement of dyes incubated with RNA; format: binding; conditions: for quantum yield in RNA solution: 10 μM dye, 200 μg/mL RNA in T.E. buffer; for fluorescence enhancement upon binding RNA: ratio of quantum yield of dye in RNA solution over free dye
Experimental: To determine the fluorescence change of 1a-1d in the presence of RNA, the dyes (10 μM) were incubated with torula yeast type IV RNA in T.E. buffer and measured the spectral and photophysical parameters as described above. Fold-enhancement values were calculated by taking the ratio of the quantum yield of dyes in RNA solution over free dyes.
as §1

fixed HeLa cells = assay: Ribonuclease (RNase) digest experiment; format: cell-based; conditions: fixed cells treated with RNase
Experimental: HeLa cells were cultured in six-well plates with glass coverslips and incubated at 37° C. overnight to totally adherent. The cells were fixed according to the protocol described above with minor modifications. A solution of 4% paraformaldehyde+0.1% Triton-X was prepared in PBS and used to fix and permeabilize HeLa cells. The cells were incubated with this solution for 20 min at room temperature. After rinsing the cells with PBS, the cells were stained with 1 μM 1c, 1d, or SYTO in PBS for 30 min at room temperature. After removing the staining solution, 0.5 mL of RNase ([…]) and PBS (negative control) was added into each respective well and incubated for 6 h. After incubation, the medium was removed, and the cells were thoroughly washed with PBS three times. The glass coverslips were mounted onto glass slides, sealed, and analyzed using confocal microscopy.

PFA-fixed HeLa cells = assay: Fixed-cell imaging; format: cell-based; conditions: HeLa fixed with 4% PFA
Experimental: HeLa cells were cultured on 6-well plates containing glass coverslips and incubated at 37° C. overnight or until fully adherent. After removing the medium and washing with DPBS, the cells were fixed with 4% paraformaldehyde for 10 min at ambient temperature. After fixation, the cells were rinsed with PBS and incubated with dye solutions in PBS for 30 min at ambient temperature. After incubation, the dye solutions were removed and cells were gently washed with PBS three times. The coverslips were mounted onto glass slides, sealed, and analyzed using confocal microscopy.

[2] = test system: RNA mixture (torula yeast RNA type IV); assay: Comparison of fluorogenic response with SYTO RNASelect; format: binding; conditions: same RNA species
Experimental: 100 μL of 1 μM 1c and SYTO RNASelect were diluted by 100 μL solutions of RNA mixture to reach final concentrations ranging from 0 to 1000 μg/mL. The resulting mixtures were placed in a 96-well opaque plate. The plate with the mixture was gently shaken for 5 min before being evaluated by a microplate reader (SpectraMax iD5).

live HeLa cells = assay: Live-cell and time-resolved confocal imaging; format: cell-based; conditions: for cellular localization of fluorescence signals: live HeLa, 20 μM, 30 min; for time after addition at which nucleoli could be clearly discerned: live cells, dye in medium
Experimental: HeLa cells were cultured at a density of 7000 cells/well on chambered glass sides and incubated at 37° C. overnight or until fully adherent. After removing the medium and washing with DPBS (Thermo Fisher), the cells were incubated with dyes in PBS (Thermo Fisher) for 30 min at 37° C. with 5% CO2 on the microscope stage and analyzed directly. Fluorescence images were acquired using a confocal microscope (Leica SP8, Leica Microsystems) and analyzed using ImageJ. MPI (20 μM) was excited at 440 nm, SYTO RNASelect (0.1-1 μM, Thermo Fisher) was excited at 490 nm, 1c (10 nM-20 μM) was excited at 550 nm, and 1d (20 μM) was excited at 500 nm.
HeLa cells were cultured on eight-well chambered glass slides (iBidi μ-slides) and incubated overnight at 37° C. with 5% CO2 until totally adherent. Staining solutions for each dye were prepared in serum-free DMEM and kept warm at 37° C. The cells were monitored from 0 to 30 min, where t=0 is the time right before the addition of the dye. Images were acquired at t=0, 0.5, 1, 2, 5, 10, 15, 20, 25, and 30 min for each dye. Fluorescence images were analyzed and quantified with ImageJ.

rRNA = assay: Native-PAGE gel staining; set-up: species or system Baker's yeast
Experimental: 1 L of 10×TBE running buffer was prepared by mixing 108 g of Tris Base, 55 g of boric acid, and 40 mL of 0.5 M EDTA (Apex). The combined solution was diluted to 1 L by filtered H2O. 14 mL of 8% Native-PAGE gel was prepared by mixing 0.7 mL of 10×TBE buffer, 0.14 mL of 10% APS buffer (Bio-Rad), and 3.73 mL of 30% acrylamide solution. The mixture was diluted to 14 mL with filtered water. 28 μL of TEMED (Sigma) was added to the mixture. The gel mixture was transferred into the casting frame placed in a precooled gel chamber. An 18-well cast was put on the top and left for polymerization for 15 min on ice. The gel chamber was filled with cold 0.5×TBE running buffer. The gel was pre-run at 150 V for 40 min. The RNA marker mixture was loaded (5 μL micro-RNA marker+0.4 μL low range marker (Bio-Rad) for one well). 5 μL of rRNA sample was loaded to reach rRNA amount as 1 and 10 μg. The RNA marker and rRNA sample loading had four repeats on the same gel. The gel was run at 150 V for 30 min. The cut gels were stained and shaken in 25 mL of 1×SYBR Gold (Thermo Fisher), 2 μM 1c, 20 μM 1c, and 40 μM 1c for 15 min. The gels were de-stained with 0.5×TBE buffer and shaken for 10 min. The buffer was removed, and the gels were imaged using an Amersham Typhoon Biomolecular […].

RNA/spermine condensates = assay: Staining and FLIM imaging of RNA-spermine condensates; set-up: species or system torula yeast; conditions: 10 μM
Experimental: A 1 wt % stock solution of torula yeast RNA type IV was prepared in nuclease-free water and stored in multiple aliquots at −20° C. Final concentrations of RNA ranged from 0.02 to 0.4 wt %. A 1 wt % stock solution of spermine was prepared in deionized water and stored at 4° C. The spermine (Sigma) concentration was fixed at 0.1 wt %. Dye 1c was prepared as 10 mM stock solutions in DMSO. Condensates were prepared in a 5 mM HEPES (pH 7.4, VWR), 1 mM MgCl2 buffer. Stock solutions were added in the following order for the preparation of each sample: deionized water, HEPES, MgCl2, RNA, and spermine. Samples were mixed via gentle pipetting in between the addition of each component. RNA condensates were incubated with 10 μM 1c for 1 min at room temperature. To image the condensates, 20 μL of the incubated sample was added onto a glass coverslip and mounted onto a glass slide. Images were acquired using fluorescence confocal microscopy and FLIM.

DNA from calf thymus = assay: Fluorescence titration of 1c with nucleic acids or BSA; format: binding; conditions: fluorogenic response with DNA vs RNA
Experimental: Solutions of torula yeast RNA type IV (RNA mixture) and DNA from calf thymus (Sigma) were prepared and stored at 4° C. overnight. Bovine serum albumin (BSA, Thermo Fisher) and Baker's yeast RNA (rRNA, Sigma) solutions were prepared at 2 h before testing. 100 μL of 1 μM 1c were diluted by corresponding substrates solution reaching concentrations ranging from 0 to 1000 μg/mL of nucleic acids or BSA. The resulting mixtures were placed in a 96-well opaque plate. The plate with the mixture was gently shaken for 5 min before being evaluated by a microplate reader.

[3] = previously reported; cited from earlier work

Row | Compound | Stokes shift [1] | molar absorptivity [1] | emission wavelength (maximum) [1] | fluorescence quantum yield of free dye [1] | maximum absorbance wavelength [1] | quantum yield in RNA solution (torula yeast type IV RNA) | fluorescence enhancement upon binding RNA (torula yeast type IV RNA) | localization of fluorescence signals in fixed cells (PFA-fixed HeLa cells) | cellular localization of fluorescence signals (live HeLa cells) | time after addition at which nucleoli could be clearly discerned (live HeLa cells) | absorption wavelength (reported) [3] | emission wavelength (reported) [3] | further results
1 | Cn1c(/C=C/c2cc[n+](C)cc2)cc2ccccc21.[I-] [Dye 1a] | 162 nm | 20600 M⁻¹ cm⁻¹ | 584 nm | 0.12% | 422 nm | 9.9% | 104 fold |  |  |  |  |  | 
2 | C[n+]1ccc(/C=C/c2cc3ccccc3[nH]2)cc1.[I-] [Dye 1b] | 142 nm | 24400 M⁻¹ cm⁻¹ | 568 nm | 0.12% | 410 nm | 3.9% | 33 fold |  |  |  |  |  | 
3 | C[n+]1ccc(/C=C/c2ccc3ccccn23)cc1.[I-] [Dye 1c] | 86 nm | 27500 M⁻¹ cm⁻¹ | 596 nm | 0.10% | 510 nm | 49% | 490 fold | predominantly coming from the nucleoli and cytoplasm | primarily within the nucleoli and cytoplasm | 30 s |  |  | dependence of nucleolar staining on RNA (fixed HeLa cells): RNA-dependent; fluorogenic response compared with SYTO RNASelect [2]: significantly higher fluorogenic responses than SYTO™ RNASelect; lowest concentration used to resolve nucleoli (live HeLa cells): 10 nM; concentration sufficient for visualizing nucleoli (dose-response study) (live HeLa cells; live HeLa cells): nanomolar concentrations; sensitivity of gel staining versus SYBR Gold (rRNA): lower than the commercial standard, SYBR Gold; staining of RNA in PAGE-gels (rRNA): can stain RNA in PAGE-gels; partitioning into RNA coacervates (RNA/spermine condensates): readily partitions into RNA coacervates; selectivity for RNA over DNA in vitro (DNA from calf thymus): moderate selectivity for RNA over DNA
4 | C[n+]1ccc(/C=C/c2ccn3ccccc23)cc1.[I-] [Dye 1d] | 86 nm | 34600 M⁻¹ cm⁻¹ | 572 nm | 0.38% | 486 nm | 50% | 132 fold | predominantly coming from the nucleoli and cytoplasm | primarily within the nucleoli and cytoplasm | 30 s |  |  | 
5 | C[n+]1ccc(/C=C/c2c[nH]c3ccccc23)cc1.[I-] [IN] |  |  |  |  |  |  |  |  |  |  | ~ 440 nm | ~ 540 nm | 
6 | methyl pyridinium indole [MPI] |  |  |  |  |  |  |  |  |  |  | ~ 440 nm | ~ 540 nm | fluorescence quantum yield (reported) [3]: 32%
